In PubChem BioAssay AID248 (DTP/NCI, 2004):
“And” between values parts separate entries of the source, which are not always exact repeats. Equal values may be shown once. Inconclusive results and toxic doses are left out. No stated cut-off is given here; in the data, active means T/C of 150% or more; inactive means T/C below 125%.

System: L1210 leukemia ip in BDF1 mice, survival T/C
Assay: NCI In Vivo Anticancer Drug Screen. Data for tumor model L1210 Leukemia (intraperitoneal) in B6D2F1 (BDF1) mice
Conditions: endpoint: mean survival time, higher = longer survival
In short: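 Each compound was tested against a transplantable tumor grown in mice. The endpoint was survival, with treated animals benchmarked against vehicle controls as a simple ratio.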

[1] = dose: 100.0 mg/kg/injection, schedule: Q01DX001 (ip), vehicle: Klucel (hydroxypropylcellulose) (HPC)
[2] = dose: 100.0 mg/kg/injection, schedule: Q01DX009 (ip), vehicle: Klucel (hydroxypropylcellulose) (HPC)
[3] = dose: 200.0 mg/kg/injection, schedule: Q01DX001 (ip), vehicle: Klucel (hydroxypropylcellulose) (HPC)
[4] = dose: 200.0 mg/kg/injection, schedule: Q01DX009 (ip), vehicle: Klucel (hydroxypropylcellulose) (HPC)
[5] = dose: 100.0 mg/kg/injection, schedule: Q04DX003 (ip), vehicle: saline with Tween-80
[6] = dose: 200.0 mg/kg/injection, schedule: Q04DX003 (ip), vehicle: saline with Tween-80
[7] = dose: 400.0 mg/kg/injection, schedule: Q04DX003 (ip), vehicle: saline with Tween-80
[8] = dose: 100.0 mg/kg/injection, schedule: Q01DX001 (ip), vehicle: saline
[9] = dose: 200.0 mg/kg/injection, schedule: Q01DX001 (ip), vehicle: saline
[10] = dose: 400.0 mg/kg/injection, schedule: Q01DX001 (ip), vehicle: saline
[11] = dose: 100.0 mg/kg/injection, schedule: Q04DX003 (ip), vehicle: Klucel (hydroxypropylcellulose) (HPC)
[12] = dose: 200.0 mg/kg/injection, schedule: Q04DX003 (ip), vehicle: Klucel (hydroxypropylcellulose) (HPC)
[13] = dose: 400.0 mg/kg/injection, schedule: Q04DX003 (ip), vehicle: Klucel (hydroxypropylcellulose) (HPC)
[14] = dose: 300.0 mg/kg/injection, schedule: Q01DX001 (ip), vehicle: saline
[15] = dose: 100.0 mg/kg/injection, schedule: Q04DX003 (ip), vehicle: saline
[16] = dose: 200.0 mg/kg/injection, schedule: Q04DX003 (ip), vehicle: saline
[17] = dose: 400.0 mg/kg/injection, schedule: Q04DX003 (ip), vehicle: saline
[18] = dose: 100.0 mg/kg/injection, schedule: Q04DX002 (ip), vehicle: saline
[19] = dose: 200.0 mg/kg/injection, schedule: Q04DX002 (ip), vehicle: saline

Measured: T/C

O=C(/C=C(\Cl)c1ccc2c(c1)OCO2)OC/C=C\c1ccc2c(c1)OCO2
inactive: dose: 50.0 mg/kg/injection, schedule: Q01DX009 (ip), vehicle: Klucel (hydroxypropylcellulose) (HPC) 94 % of control | [1] 93 % of control | [2] 92 % of control | [3] 88 % of control | [4] 92 % of control

Cc1ccc(S(=O)(=O)N2CC(O)CC2C(=O)O)cc1 (stereo unspecified)
inactive: dose: 100.0 mg/kg/injection, schedule: Q01DX009 (ip), vehicle: saline with Tween-80 96 % of control | [5] 93 % of control and 100 % of control | dose: 200.0 mg/kg/injection, schedule: Q01DX009 (ip), vehicle: saline with Tween-80 101 % of control | [6] 95 % of control and 103 % of control | dose: 400.0 mg/kg/injection, schedule: Q01DX009 (ip), vehicle: saline with Tween-80 101 % of control | [7] 93 % of control and 96 % of control

CC1(C(=O)O)CC(Cl)=CCC1C(=O)O (stereo unspecified)
inactive: dose: 100.0 mg/kg/injection, schedule: Q01DX001 (ip), vehicle: steriod suspending solution 105 % of control | dose: 200.0 mg/kg/injection, schedule: Q01DX001 (ip), vehicle: steriod suspending solution 103 % of control | dose: 400.0 mg/kg/injection, schedule: Q01DX001 (ip), vehicle: steriod suspending solution 97 % of control

CSCCC(O)C(=O)O (stereo unspecified)
inactive: [8] 101 % of control | [9] 95 % of control | [10] 101 % of control

C=Nc1ccc(Cl)cc1
inactive: dose: 50.0 mg/kg/injection, schedule: Q01DX001 (ip), vehicle: carboxymethylcellulose (CMC) 98 % of control | dose: 100.0 mg/kg/injection, schedule: Q01DX001 (ip), vehicle: carboxymethylcellulose (CMC) 93 % of control | dose: 200.0 mg/kg/injection, schedule: Q01DX001 (ip), vehicle: carboxymethylcellulose (CMC) 98 % of control

CC1(C)CC(=O)CC(C)(C)ON1
inactive: dose: 100.0 mg/kg/injection, schedule: Q04DX002 (ip), vehicle: saline with Tween-80 99 % of control | dose: 200.0 mg/kg/injection, schedule: Q04DX002 (ip), vehicle: saline with Tween-80 99 % of control | dose: 400.0 mg/kg/injection, schedule: Q04DX002 (ip), vehicle: saline with Tween-80 99 % of control

Cc1ccc(S(=O)(=O)OC2C(C)C3C2S(=O)(=O)C3(C)C)cc1 (stereo unspecified)
inactive: [5] 102 % of control | [6] 104 % of control | [7] 102 % of control

CC(=O)CC(=O)Nc1ccccc1Cl
inactive: [11] 89 % of control | [12] 92 % of control | [13] 96 % of control

CN(C(=O)Nc1cccc(C(F)(F)F)c1)c1ccccc1
inactive: [2] 98 % of control | [4] 96 % of control | dose: 400.0 mg/kg/injection, schedule: Q01DX009 (ip), vehicle: Klucel (hydroxypropylcellulose) (HPC) 101 % of control

O=c1c2ccccc2[nH]c(=S)n1-c1cccc(Cl)c1
inactive: dose: 75.0 mg/kg/injection, schedule: Q01DX001 (ip), vehicle: saline 93 % of control | dose: 150.0 mg/kg/injection, schedule: Q01DX001 (ip), vehicle: saline 89 % of control | [14] 91 % of control

CSc1ncc2c(=O)n(-c3ccccc3)[nH]c2n1
inactive: [1] 103 % of control | [3] 97 % of control | dose: 400.0 mg/kg/injection, schedule: Q01DX001 (ip), vehicle: Klucel (hydroxypropylcellulose) (HPC) 87 % of control

C=CC(O)c1ccccc1 (stereo unspecified)
inactive: dose: 75.0 mg/kg/injection, schedule: Q01DX009 (ip), vehicle: saline with Tween-80 90 % of control | dose: 75.0 mg/kg/injection, schedule: Q04DX003 (ip), vehicle: saline with Tween-80 89 % of control | dose: 150.0 mg/kg/injection, schedule: Q01DX009 (ip), vehicle: saline with Tween-80 87 % of control | dose: 150.0 mg/kg/injection, schedule: Q04DX003 (ip), vehicle: saline with Tween-80 109 % of control | dose: 300.0 mg/kg/injection, schedule: Q01DX009 (ip), vehicle: saline with Tween-80 88 % of control | dose: 300.0 mg/kg/injection, schedule: Q04DX003 (ip), vehicle: saline with Tween-80 105 % of control

C[CH2][Pb]([CH2]C)([CH2]C)[S]c1ccc(Cl)cc1
inactive: dose: 25.0 mg/kg/injection, schedule: Q04DX002 (sc), vehicle: olive oil, sesame oil, peanut oil 110 % of control | dose: 50.0 mg/kg/injection, schedule: Q04DX002 (sc), vehicle: olive oil, sesame oil, peanut oil 87 % of control

N#CCCP(=O)(CCC#N)CCC#N
inactive: dose: 50.0 mg/kg/injection, schedule: Q04DX003 (ip), vehicle: saline 98 % of control | [15] 98 % of control | [16] 101 % of control | [17] 101 % of control

N/N=C/C=N/Nc1cnccn1
inactive: [2] 106 % of control | [4] 86 % of control

COc1ccc(N=Cc2ccc(Cl)cc2)cc1C(F)(F)F
inactive: [11] 98 % of control | [12] 89 % of control | [13] 104 % of control

C=C([Si](C)(C)C)[Si](C)(C)C
inactive: [5] 102 % of control | [6] 102 % of control | [7] 94 % of control

N#Cc1sc2ccccc2c1O
inactive: dose: 50.0 mg/kg/injection, schedule: Q04DX003 (ip), vehicle: Klucel (hydroxypropylcellulose) (HPC) 106 % of control | [11] 97 % of control | [12] 95 % of control

NCC(NCc1ccccc1)(c1ccccc1)c1ccccc1
inactive: dose: 20.0 mg/kg/injection, schedule: Q04DX003 (ip), vehicle: Klucel (hydroxypropylcellulose) (HPC) 94 % of control | dose: 40.0 mg/kg/injection, schedule: Q04DX003 (ip), vehicle: Klucel (hydroxypropylcellulose) (HPC) 96 % of control | dose: 80.0 mg/kg/injection, schedule: Q04DX003 (ip), vehicle: Klucel (hydroxypropylcellulose) (HPC) 102 % of control

C=CCc1cn(C2CC(O)C(CO)O2)c(=O)[nH]c1=O (stereo unspecified)
inactive: dose: 50.0 mg/kg/injection, schedule: Q01DX001 (ip), vehicle: saline 101 % of control | dose: 50.0 mg/kg/injection, schedule: Q04DX002 (ip), vehicle: saline 91 % of control | [8] 100 % of control and 101 % of control and 106 % of control | dose: 100.0 mg/kg/injection, schedule: Q01DX009 (ip), vehicle: saline 98 % of control | [18] 110 % of control | [15] 106 % of control | dose: 115.0 mg/kg/injection, schedule: Q01DX009 (ip), vehicle: saline 104 % of control | dose: 175.0 mg/kg/injection, schedule: Q01DX009 (ip), vehicle: saline 102 % of control | dose: 178.0 mg/kg/injection, schedule: Q01DX015 (ip), vehicle: saline 110 % of control | dose: 200.0 mg/kg/injection, schedule: Q01DX009 (ip), vehicle: saline 109 % of control and 112 % of control | [19] 100 % of control | [16] 95 % of control | dose: 264.0 mg/kg/injection, schedule: Q01DX009 (ip), vehicle: saline 110 % of control | dose: 267.0 mg/kg/injection, schedule: Q01DX015 (ip), vehicle: saline 107 % of control | dose: 400.0 mg/kg/injection, schedule: Q01DX009 (ip), vehicle: saline 115 % of control | dose: 400.0 mg/kg/injection, schedule: Q01DX015 (ip), vehicle: saline 119 % of control | [17] 111 % of control | dose: 600.0 mg/kg/injection, schedule: Q01DX015 (ip), vehicle: saline 121 % of control | dose: 800.0 mg/kg/injection, schedule: Q01DX001 (ip), vehicle: saline 105 % of control | dose: 1600.0 mg/kg/injection, schedule: Q01DX001 (ip), vehicle: saline 110 % of control

CN(c1ccccc1)S(=O)(=O)c1cccc([N+](=O)[O-])c1
inactive: [11] 103 % of control | [12] 94 % of control | [13] 101 % of control

O=C1C=CC(=O)N1Cc1ccncc1
inactive: [8] 101 % of control | [9] 95 % of control | [10] 95 % of control

CCN(CC#CCOc1ccc(Br)cc1)c1ccccc1
inactive: [18] 105 % of control | [19] 101 % of control | dose: 400.0 mg/kg/injection, schedule: Q04DX002 (ip), vehicle: saline 99 % of control

CCCCCCCCC(=O)NCCCNC(=O)CCCCCCCC
inactive: dose: 30.0 mg/kg/injection, schedule: Q01DX001 (ip), vehicle: saline 96 % of control | [8] 91 % of control | [14] 93 % of control
